Article PMC9324262, “Selective CDK9 Inhibition by Natural Compound Toyocamycin in Cancer Cells” (Cancers, 2022)
Entries after “also recorded” stand apart in the source; their conditions may differ.

How the values were obtained:
YB5 cells [1] = test: anchorage-dependent clonogenic assay; assay type: cell-based, human; details: 2 weeks drug-free
Method: Two hundred YB5 cells were seeded per well in 6-well plates. On the following day, YB5 cells were treated with toyocamycin for 24 h or 72 h. Decitabine (10–50 nM for 72 h) was used as a positive control for the loss of clonogenic potential. Drugs and media were replaced each day. After treatment, media was removed. YB5 cells were grown in drug-free media for 2 weeks to allow visible colony formation prior to colony staining (0.5% methylene blue in 50% methanol). YB5 colonies were counted manually.

YB5 cells [2] = test: GFP reactivation in YB5 cell-based system (flow cytometry); design: species or system human
Method: YB5 cells are derived from SW48 cells (human colon cancer cell line), and contain a single insertion of a DNA hypermethylated cytomegalovirus (CMV) promoter driving the green fluorescent protein (GFP) gene, as previously described. YB5 cells are cultured in L-15 medium supplemented with 10% fetal bovine serum and grown in log-phase in 1% CO2 atmosphere. YB5 cells were authenticated by DNA fingerprinting prior to drug screening and validation experiments. GFP expression in YB5 cells is silenced in >99.9% of the cells due to the CMV promoter DNA hypermethylation and repressive chromatin marks around the transcriptional start site. The human HCT116 colon cancer-derived GFP-reporter system, comprising a GFP gene under the control of an endogenously hypermethylated SFRP1 gene promoter, was kindly provided by Dr. Stephen Baylin (Johns Hopkins University). These cells are cultured in McCoy’s 5A medium supplemented with 10% fetal bovine serum and grown in log-phase in 5% CO2 atmosphere at 37 °C. The 451-Lu-BR melanoma cells were a kind gift from Dr. Raza Zaidi (Fels Institute for Cancer Research and Molecular Biology, Temple University School of Medicine, Philadelphia). These cells are derived from parental 451-LU cells that have acquired resistance to BRAF inhibitors. The 451-Lu-BR cells were cultured at 37 °C in Dulbecco’s Modified Eagle Medium (DMEM) supplemented with 10% fetal bovine serum, L-alanyl-L-glutamine (2 mM), and gentamycin (50 µg/mL) in 5% CO2 at 37 °C. The natural drug library (natural product set II) containing 120 compounds was obtained from the National Cancer Institute Developmental Therapeutics Program. Natural compounds were dissolved in DMSO (10 mM) in 96-well plates that were kept at −80°C until use. Toyocamycin, analogues of toyocamycin (sangivamycin, tubercidin, 3-deaza-adenosine, DZNep), CDK inhibitors, and epigenetic drugs (decitabine, SAHA, trichostatin A, depsipeptide) were purchased from Sigma-Aldrich (St. Louis, MO, USA,) for validation studies, dissolved in DMSO, and kept at −80 °C until use.
YB5 cells were seeded at 30,000 cell/mL in 96-well plates (6000 cells/well) and treated 3 days after seeding. Cells were exposed to 120 natural compounds in 5 different experimental conditions: (1) 72 h exposure at 10 µM followed by 24 h recovery period prior to analysis; (2) 24 h treatment at 50 µM prior to analysis; (3) 72 h exposure at 10 µM of the compound library followed by 24 h treatment with HDAC inhibitor trichostatin A (200 nM) prior to analysis; (4) 72 h exposure at 10 µM in simultaneous combination with decitabine (50 nM) followed by 24 h recovery period prior to analysis; and (5) 72 h treatment with decitabine (50 nM) followed by 24 h exposure with the natural compound library (50 µM) prior to analysis. The scheme of different dose schedules is shown Figure S1A. During screening, drugs and cell culture media were replaced every day. To ensure the quality and the reproducibility of the screen, each 96-well plate was designed to include 80 natural compounds, 4 untreated wells, 4 wells treated with decitabine (50 nM, 72 h), 4 wells treated with trichostatin A (200 nM, 24 h), and their combination with decitabine (50 nM, 72 h) followed by trichostatin A treatment (200 nM, 24 h) prior to flow cytometry analysis. The percentage of GFP-expressing cells in control wells (untreated or treated with known epigenetic drugs) was measured and was reproducible between different plates.
After treatment, YB5 cells were trypsinized for 15 min and resuspended in L-15 media containing propidium iodide (PI) to stain dead cells. GFP expression and PI staining were quantified by a BD LSR II flow cytometer (BD Biosciences, San Jose, CA, USA). A maximum of 10,000 cells was analyzed per well. Validations were performed using a Millipore Guava flow cytometer (EMD, Millipore, Burlington, MA, USA). […]

[3] = system: 451-Lu-BR human melanoma cells; test: proliferation assay by cell counting; assay type: cell-based
Method: Proliferation assays were performed for 451-Lu-BR human melanoma cells in response to toyocamycin exposure. First, 20,000 cells were seeded per well in 24-well plates. Cells were treated with either DMSO (<0.01% final concentration) or various toyocamycin concentrations. Cell proliferation was assessed by cell counting using a hemocytometer (n = 3) after 24, 48, and 72 h of treatment. The data were plotted as the total number of cells in response to toyocamycin for each treatment duration relative to DMSO treated cells.

[4] = design: method as in PMID 5646857; details: cited from earlier work
HCT116 cells = test: cell cycle analysis by flow cytometry; assay type: cell-based, human
Method: For cell cycle analysis, cells were cultured in T25 flasks, trypsinized, and washed with PBS. Then, 1 × 10^6 cells were fixed in 100% cold ethanol overnight at −20 °C. Cells were then washed with PBS and treated with 100 μg/mL RNase A (Invitrogen, Waltham, MA USA) for 20 min, at 37 °C. DNA was stained with 5 μg/mL propidium iodide (Sigma, St. Louis, MO, USA). The cell cycle was analyzed by flow cytometry using a Guava® easyCyte HT System (Millipore) with GuavaSoft 3.2 software.

[5] = 6 h treatment followed by 18 h without exposure

## N#Cc1cn([C@@H]2O[C@H](CO)[C@@H](O)[C@H]2O)c2ncnc(N)c12 [toyocamycin, 7-Deaza-7-cyanoadenosine]
YB5 cells [1]; 10 nM, 24 h treatment
  colony formation: completely abrogated colony formation; also recorded: full eradication of the clonogenic potential
YB5 cells [1]; 10–50 nM, 72 h treatment
  colony formation: fully abolished colony formation
YB5 cells [2]; 250 nM, 48 h
  GFP-expressing YB5 cells: about 10%
YB5 cells [2]; 5 µM, 72 h
  YB5 cells expressing GFP: More than 60%
YB5 cells [2]; sequential combination with decitabine, toyocamycin 0.5–5 µM
  GFP expression, % of YB5 cells: up to 40%
YB5 cells [2]; toyocamycin 250 nM 48 h, MC180295 500 nM 48 h
  GFP-expressing cells with CDK9 overexpression (HA-CDK9, FLAG-CDK9): reduction in the number of GFP-expressing cells
[3]; 72 h treatment
  cell proliferation: full proliferation arrest
[3]; low doses, 24 h treatment
  cell proliferation: did not reduce cell proliferation
[4]; 10–200 µg/kg for 5 days, intravenous infusion over 1–2 h, twenty-three cancer patients
  systemic toxic effects: No systemic toxic effects were observed
[4]; patients receiving the highest doses, intravenous infusion
  local toxicity: local toxicity at the site of injection (severe phlebitis)
HCT116 cells; [5]
  apoptotic cells: 10%
  cell cycle: not significantly impacted
HCT116 cells; 24 h treatment, 500–1000 nM
  cell cycle: significantly blocked the cell cycle
